Values joined by “and” are separate entries in the source; they are usually repeats but may differ in a detail not shown here. Identical values can stand only once.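 Five concentrations, 48 hours, 96-well plates. GI50: concentration for 50% inhibition of growth. TGI: concentration producing complete growth inhibition.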
Key:
Assay in all cases: DTP human tumour cell line panel, 48 h
A498 renal = tested on: A498 renal
HCT-116 colon = tested on: HCT-116 colon
OVCAR-3 ovarian = tested on: OVCAR-3 ovarian
DU-145 prostate = tested on: DU-145 prostate
SF-268 CNS = tested on: SF-268 CNS
MALME-3M melanoma = tested on: MALME-3M melanoma
SW-620 colon = tested on: SW-620 colon
U251 CNS = tested on: U251 CNS
TK-10 renal = tested on: TK-10 renal
HCC-2998 colon = tested on: HCC-2998 colon

Structure (SMILES) | GI50 (A498 renal) | TGI (A498 renal) | GI50 (HCT-116 colon) | TGI (HCT-116 colon) | GI50 (OVCAR-3 ovarian) | TGI (OVCAR-3 ovarian) | GI50 (DU-145 prostate) | TGI (DU-145 prostate) | GI50 (SF-268 CNS) | TGI (SF-268 CNS) | GI50 (MALME-3M melanoma) | TGI (MALME-3M melanoma) | GI50 (SW-620 colon) | TGI (SW-620 colon) | GI50 (U251 CNS) | TGI (U251 CNS) | GI50 (TK-10 renal) | TGI (TK-10 renal) | GI50 (HCC-2998 colon) | TGI (HCC-2998 colon)
COc1ccc(NC(=O)c2sc3nc(C)c(C(O)c4ccccc4)cc3c2N)cc1 (configuration not stated) | 0.212 µM | 0.704 µM | 2.71 µM | > 100 µM | 2.48 µM | 13.8 µM | 3.21 µM | > 100 µM | 4.06 µM | > 100 µM | 3.22 µM | 44.9 µM | 2.64 µM | 28.1 µM | 3.58 µM | > 100 µM | 5.39 µM | > 100 µM | 2.48 µM | 24.1 µM
Cc1[nH]c(=O)[nH]c(=O)c1CO | > 100 µM | > 100 µM | > 100 µM | > 100 µM | > 100 µM | > 100 µM | > 100 µM | > 100 µM | > 100 µM | > 100 µM | > 100 µM | > 100 µM | > 100 µM | > 100 µM | > 100 µM | > 100 µM | > 100 µM | > 100 µM | > 100 µM | > 100 µM
COc1cc(-c2cc(-c3nc4ccc(Cl)cc4[nH]3)[nH]n2)cc(OC)c1OC | 2.1 µM | 11 µM | 3.45 µM | 12.2 µM | 3.5 µM | 12.1 µM | 3.27 µM | 13.4 µM | 3.6 µM | 13.2 µM | 2.58 µM | 8.32 µM | 4.99 µM | 18.6 µM | 3.38 µM | 14.1 µM | 3.52 µM | 15.8 µM | 5.98 µM | 18.7 µM
COc1cc(/C=C2\COc3ccc(O)c(O)c3C2=O)cc(OC)c1 | 5.12 µM | 19.1 µM | 1.56 µM | 3.61 µM | 0.596 µM | 1.92 µM | 1.71 µM | 4.26 µM | 1.68 µM | 5.34 µM | 1.82 µM | 6.08 µM | 1.22 µM | 4 µM | 0.861 µM | 4.09 µM | 2.26 µM | 6.89 µM | 1.85 µM | 3.5 µM
NCCC(O)(P(=O)(O)O)P(=O)(O)O | > 100 µM | > 100 µM | > 100 µM | > 100 µM | > 100 µM | > 100 µM | > 100 µM | > 100 µM | > 100 µM | > 100 µM | > 100 µM | > 100 µM | > 100 µM | > 100 µM | > 100 µM | > 100 µM | > 100 µM | > 100 µM | > 100 µM | > 100 µM
CN(C)CCCc1c[nH]c2ccccc12 |  | > 100 µM |  | > 100 µM |  | > 100 µM |  | > 100 µM |  | > 100 µM |  | > 100 µM |  | > 100 µM |  | > 100 µM |  | > 100 µM |  | > 100 µM
CS(=O)(=O)Nc1ccc(Nc2c3ccccc3nc3ccccc23)cc1 |  | 16.3 µM |  | 15 µM |  | 18.7 µM |  | > 23.1 µM |  | 24.5 µM |  | 12.2 µM |  | 19.9 µM |  | 13.8 µM |  | 9.52 µM |  | 27 µM
Nc1c(C(=O)Nc2ccccc2Cl)sc2nc3c(cc12)CCCCCC3 | 7.73 µM | > 100 µM | 1.95 µM | 6.6 µM | 3.23 µM | 12.7 µM | 7.84 µM | > 100 µM | 3.44 µM | 16.7 µM | 2.62 µM | 9.33 µM | 3.14 µM | > 100 µM | 2.99 µM | 21.3 µM | 2.4 µM | 6.22 µM | 7.06 µM | > 100 µM
COc1ccc2c(c1)CCC1C2CC[C@]2(C)/C(=N/OC(=O)Cc3ccccc3)CCC12 (some centres not stated) | 21.6 µM | 45.8 µM | 13.4 µM | 26.2 µM | 15.8 µM | 31 µM | 28.6 µM | 69.2 µM | 18.7 µM | 34.4 µM | 20.7 µM | 37.4 µM | 35.5 µM | > 100 µM | 19.6 µM | 37.4 µM | 37.7 µM | 97.1 µM | 19.8 µM | 35.6 µM
CCC(=C/[C@H](C)C/C=C/C(C)=C/[C@@H](C)C(=O)[C@@H](C)[C@H](O)[C@@H](C)CC)/C=C/[C@H]1OC(=O)C=C[C@H]1C | < 0.01 µM | < 0.024 µM | < 0.01 µM | 0.0102 µM | < 0.01 µM |  | < 0.01 µM | 2.69 µM | < 0.01 µM | 1.46 µM | < 0.01 µM |  | < 0.01 µM | 1.9 µM | < 0.01 µM | 1.35 µM | < 0.01 µM | 1.52 µM | < 0.01 µM | < 0.01 µM
COc1ccc(-c2ccc(C3CC(c4ccc(Cl)cc4)=NN3)o2)c([N+](=O)[O-])c1 (configuration not stated) | > 100 µM | > 100 µM | > 100 µM | > 100 µM | > 100 µM | > 100 µM | > 100 µM | > 100 µM | > 100 µM | > 100 µM | > 100 µM | > 100 µM | > 100 µM | > 100 µM | > 100 µM | > 100 µM | > 100 µM | > 100 µM | > 100 µM | > 100 µM
Nc1ncnc2c1ncn2C1OC(CO)=CC1O (configuration not stated) |  | > 37.5 µM |  | > 37.5 µM |  | > 37.5 µM |  | > 37.5 µM |  | > 37.5 µM |  | > 37.5 µM |  | > 37.5 µM |  | > 37.5 µM |  | > 37.5 µM |  | > 37.5 µM
Cn1cc(C2=C(c3cn(CCN)c4ccccc34)C(=O)NC2=O)c2ccccc21 | 7.79 µM | 17.6 µM | 5.57 µM | > 25 µM | 7.47 µM | > 23.9 µM | 8.63 µM | > 25 µM | 7.41 µM | 20.4 µM | 5.99 µM | 13.5 µM | 6.25 µM | > 20.1 µM | 5.61 µM | > 20.5 µM | 6.3 µM | 18.8 µM | 7.22 µM | 20.9 µM
NS(=O)(=O)c1ccc(CCN=C=S)cc1 | 2.21 µM | 7.99 µM | 1.75 µM | 3.45 µM | 1.7 µM | 3.13 µM | 1.8 µM | 3.83 µM | 2.83 µM | 10.1 µM | 2.22 µM | 5.35 µM | 1.84 µM | 3.96 µM | 1.94 µM | 4.13 µM | 0.987 µM | 3.79 µM | 1.88 µM | 3.55 µM
Cc1nc(NC(=O)CCCN2C(=O)c3cccc4cccc(c34)C2=O)sc1C(=O)Nc1cc(C(=O)NCCCN(C)C)n(C)c1 | > 100 µM | > 100 µM | > 100 µM | > 100 µM | > 100 µM | > 100 µM | > 100 µM | > 100 µM | > 100 µM | > 100 µM | > 100 µM | > 100 µM | > 100 µM | > 100 µM | > 100 µM | > 100 µM | > 100 µM | > 100 µM | > 100 µM | > 100 µM
CCCCCCCC[N+](C)(CCCCCCCC)CCCCCCCC | 0.563 µM | 1.54 µM | 0.272 µM | 1.24 µM | 0.267 µM | 0.792 µM | 0.414 µM | 1.41 µM | 0.441 µM | 1.53 µM | 0.224 µM | 0.713 µM | 0.338 µM | 1.46 µM | 0.324 µM | 1.31 µM | 0.352 µM | 1.19 µM | 0.305 µM | 1.17 µM
C=C1C(=O)O[C@H]2[C@H]1CC/C(COC(=O)NCc1c[nH]c3ccc(Cl)cc13)=C\CC[C@@]1(C)O[C@@H]21 | 1.81 µM | 4.68 µM | 1.27 µM | 2.61 µM | 1.11 µM | 2.7 µM | 1.2 µM | 2.65 µM | 1.66 µM | 3.51 µM | 1.68 µM | 3.34 µM | 0.657 µM | 2.2 µM | 1.66 µM | 3.08 µM | 1.61 µM | 2.98 µM | 1.96 µM | 3.69 µM
CCn1cnc2c(Nc3cccc(Cl)c3)nc(N[C@@H]3CCCC[C@@H]3N)nc21 | 1.9 µM | 3.93 µM | 1.12 µM | 2.87 µM | 1.18 µM | 4.4 µM | 1.01 µM | 3.15 µM | 1.65 µM | 3.89 µM | 1.57 µM | 3.21 µM | 1.78 µM | 5.77 µM | 1.37 µM | 3.3 µM | 1.95 µM | 5.06 µM | 1.77 µM | 4.35 µM
NC1=N/C(=C2/CCNC(=O)c3[nH]c(Br)cc32)C(=O)N1 | 45.9 µM and > 100 µM | > 100 µM |  | > 100 µM | 4.29 µM and 10.7 µM | 43 µM and 40.1 µM |  | > 100 µM |  | 59.9 µM and > 69.6 µM | 8.82 µM and 25.1 µM | > 100 µM | 2.71 µM and 6.12 µM | > 100 µM |  | > 100 µM |  | > 54.9 µM |  | > 100 µM
COC1=CC(c2ccc[nH]2)=N/C1=C\c1[nH]c(C)c(C(=O)CCCCC(=O)Nc2ccccc2)c1C | 5.92 µM | 20.6 µM | 1.64 µM | 3 µM | 1.21 µM | 2.51 µM | 1.2 µM | 2.5 µM | 1.26 µM | 2.72 µM | 1.28 µM | 3.16 µM | 1.02 µM | 2.34 µM | 1.29 µM | 2.56 µM | 1.66 µM | 3.38 µM | 3.78 µM | 16.7 µM

From PubChem BioAssay (NCI)
